Laboratory results from the METLIN SMRT retention time set (Domingo-Almenara et al. 2019).

Test: gradient 5% acetonitrile 3 min, to 50% in 2 min, to 85% in 15 min, held 3 min, 100 µL/min
Details: column: Zorbax Extend-C18 2.1 x 50 mm; eluents: water / acetonitrile, 0.1% formic acid
Procedure, shortened: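 Each retention time is based on an adduct peak selected computationally and verified by manual inspection. Measurements used HPLC–quadrupole time-of-flight mass spectrometry in positive and negative ionization mode on mixtures of ~100 pure standards. Chromatography ran on a Zorbax Extend-C18 column (2.1 × 50 mm, 1.8 μm) at 100 μL/min with water and acetonitrile, each containing 0.1% formic acid, and dead and dwell volumes of 40 μL and 900 μL.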

| SMILES | RP-LC retention time |
| --- | --- |
| CCc1nn(CC(=O)NCCc2c[nH]c3ccccc23)c(=O)c2cc3sc(C)cc3n12 | 894 s |
| Cc1nc(CCNS(=O)(=O)Cc2cccc(Cl)c2)no1 | 792 s |
| Cc1ccc(CNC(=O)C2(C)CCCN(C(=O)Nc3cccc(Cl)c3C)C2)cc1 (stereo not drawn) | 1060 s |
| COc1ccc2c(CCNC(=O)COc3ccc(Cl)cc3)c[nH]c2c1 | 879 s |
| CCCN1CCN(C(=O)C2CCN(S(=O)(=O)c3ccc4c(c3)NC(=O)C(C)S4)CC2)CC1 (stereo not drawn) | 593 s |
| Cc1ccnc(Nc2nc(-c3ccc(F)c(C)c3)cs2)c1 | 906 s |
| O=C(NCCCn1c(-c2ccncc2)nc2cccnc21)NCCc1ccccc1 | 649 s |
| CCc1nccn1Cc1noc(-c2ccc(Cl)cc2)n1 | 668 s |
| Cc1cccc(-c2c3c(=O)n(C)c(=O)n(C)c3c3n2CCOC3c2ccco2)c1 (stereo not drawn) | 934 s |
| CN(C)c1ncncc1N1CCC(C(=O)N2CCOCC2)CC1 | 567 s |
| Cc1ccc(N2C(=O)CC(Nc3ccc(N4CCOCC4)cc3)C2=O)c(Br)c1 (stereo not drawn) | 618 s |
| CC(C)c1nnc2n1CCN(C(=O)CC1CCCCC1)C2 | 699 s |
| CCc1cc(=O)n(CC(=O)Nc2ccc(C)c(C)c2)c(N)n1 | 640 s |
| Cc1nc(-c2cccnc2)nc2c1CC(=O)N2C(C)C | 654 s |
| Fc1ccc(Nc2nc(-c3cccc(Cl)c3)cs2)nc1 | 1190 s |
| Cc1ccc(-c2nc3n(CC(=O)NC4CCCC4)c4c(c(=O)n3n2)CCC4)cc1 | 789 s |
| Cc1nccn1Cc1nc(-c2ccc(F)c(Br)c2)no1 | 668 s |
| CCCCNC(=O)C1CCCN1C(=O)c1ccc(NC(=O)C(C)(C)C)cc1 (stereo not drawn) | 693 s |
| O=C(/C=C/c1ccccc1)NC(NC(=S)Nc1ccc(Cl)cc1)C(Cl)(Cl)Cl (stereo not drawn) | 1030 s |
| CC(C)CN1CCN(C(=O)c2cn(-c3ccc(-c4nc(C(C)(C)C)no4)cn3)cn2)CC1 | 699 s |

| SMILES | RP-LC retention time |
| --- | --- |
| Cc1cccc(NS(=O)(=O)c2cc(-c3cc(C(F)(F)F)on3)sc2C)c1 | 1150 s |
| Cc1oc(C2CCN(C(=O)Nc3ccc4c(c3)CCC4)CC2)nc1C(=O)N(C)C | 766 s |
| CCCn1ncc(N2CCC(C(=O)N3CCN(C(C)=O)CC3)CC2)cc1=O | 591 s |
| Cc1ccc(Cl)cc1N1CCN(C(=O)CN2C(=O)C3C4C=CC(C4)C3C2=O)CC1 (stereo not drawn) | 977 s |
| O=C(NCC1(c2cccs2)CCOCC1)C(=O)Nc1ccc2c(c1)OCCO2 | 802 s |
| CCN(CC)C(=O)c1cnc2nc(C)ccc2c1Nc1ccc(S(N)(=O)=O)cc1 | 574 s |
| O=c1c2sccc2n(Cc2nc(-c3ccc(F)c(Cl)c3)no2)c(=O)n1-c1cccc(F)c1 | 1070 s |
| COc1ccc(CNC(=O)Cn2c(=O)c3cc(-c4ccco4)nn3c3ncccc32)cc1 | 754 s |
| CCn1c(=O)c(NCc2cccc(Cl)c2)nc2ccncc21 | 649 s |
| O=C1NCCCCCCN(C(=O)c2ccsc2)[C@H]2CCC[C@@H]12 | 733 s |
| CCOCCCNC(=O)N1CCOc2ccc(CN(CC)CC)cc2C1 | 591 s |
| O=C(C1CCN(c2cnc3nccnc3c2)CC1)N1CCN(c2cccc(Cl)c2)CC1 | 833 s |
| Cc1cc(N2CCN(C)CC2)nc2ccc(NC(=S)N3CCN(c4ccc(Cl)cc4)CC3)cc12 | 645 s |
| Cc1nnc(-c2coc(S(=O)(=O)N3CCCCC3C)c2)o1 (stereo not drawn) | 809 s |
| CCOC(=O)c1noc2ncnc(NCCc3ccc(Cl)cc3)c12 | 1110 s |
| CCCn1ccc2sc(C)c(C(=O)N3CCOCC3)c2c1=O | 646 s |
| CC(C)n1cnc2ccc(-c3noc(COc4ccc(Cl)cc4)n3)cc21 | 853 s |
| O=C(Cn1cnc2nc(N3CCCC(C(=O)NC4CC4)C3)sc2c1=O)NCCC1=CCCCC1 (stereo not drawn) | 722 s |
| O=C(NCc1csc(C2CCN(C(=O)c3ccc(F)c(F)c3)CC2)n1)C1CCC1 | 742 s |

The remaining lines, values ahead:

| RP-LC retention time | SMILES |
| --- | --- |
| 734 s | CCOC(=O)C1CCC(CNC(=O)N2CCC(N3CCN(Cc4ccccc4)C(=O)C3=O)CC2)CC1 (stereo not drawn) |
| 708 s | COc1ccccc1OCCNC(=O)COc1ccc(NC(=O)C2CC2)cn1 |
| 1050 s | O=C(Cn1ccc2ccc(N3CCOCC3)nc21)N1CCC(Cc2ccccc2)CC1 |
| 1050 s | O=C(CSc1cc(N2CCN(c3ccccc3F)CC2)ncn1)NC1CCCCC1 |
| 746 s | CN1C(=O)c2cccnc2Sc2cc(C(=O)NCc3ccccc3)ccc21 |
| 760 s | CC(=O)c1cccc(NC(=O)C2CC(=O)N(c3ccc4c(c3)CCN4C(=O)C3CCC3)C2)c1 (stereo not drawn) |
| 611 s | c1ccc(-c2nc(-c3ccncc3)no2)c(OC2CCN(Cc3ccc4c(c3)CCO4)C2)c1 (stereo not drawn) |
| 760 s | O=C(Cn1nc2c3ccc(F)cc3ncn2c1=O)Nc1ccc(Cl)cc1 |
| 938 s | Cc1ccc2c(c1)cc(S(=O)(=O)c1ccccc1)c(=O)n2CC(=O)NCCC(C)C |
| 623 s | CS(=O)(=O)NC1(CC2CC2)CCN(Cc2cn[nH]c2-c2ccc(F)cc2)CC1 |
| 918 s | CC(C)NC(=O)c1ccc(OCC2CCCN(C(=O)Cc3ccc(Cl)cc3)C2)cc1 (stereo not drawn) |
| 713 s | COc1ccccc1CNC(=O)CSc1ccc(-c2ccccn2)nn1 |
| 886 s | Cc1ccc(N2C=C(C(=O)N3CCOCC3)S(=O)(=O)c3ccc(Cl)cc32)cc1F |
| 755 s | O=C(C1=CN(c2cccc(F)c2)c2cc(F)ccc2S1(=O)=O)N1CCOCC1 |
| 939 s | N#CC1=CN(c2cccc(Br)c2)c2ccccc2S1(=O)=O |
| 768 s | CCC(=O)N1CCc2cc(N3CC(C(=O)Nc4cc(C)ccc4F)CC3=O)ccc21 (stereo not drawn) |
| 840 s | O=C(NCC1CCCO1)c1ccc2nc(CCc3ccccc3)oc2c1 (stereo not drawn) |
| 732 s | O=C1CN(C(=O)c2cccc(C(F)(F)F)c2)c2ccccc2N1 |
| 732 s | Cn1c(N2CCC(C(=O)Nc3ccc(Cl)cc3)CC2)cc(=O)n(C)c1=O |
| 752 s | CN1c2cc(F)ccc2C(=O)NC12CCN(C(=O)Nc1ccc(F)cc1F)CC2 |
| 558 s | O=C(c1ccc2c(c1)OCO2)N1C[C@@H](CO)[C@H](c2ccncc2)C1 |
| 1210 s | COC(=O)c1ccc2c(=O)n(CCc3ccccc3)c(N3CCCC3)nc2c1 |
| 597 s | Cc1ccc(NC(=O)C2CCCN(c3ccc(-n4ccnc4)nn3)C2)cc1F (stereo not drawn) |
| 551 s | CN1CCN(c2cc(C(=O)O)c3cc(F)ccc3n2)CC1 |
| 798 s | COc1ccc(C(=O)Nc2cc(OC)nc(OC)n2)cc1 |

| RP-LC retention time | SMILES |
| --- | --- |
| 692 s | CCOC(=O)c1nc(Nc2ccc(S(=O)(=O)Nc3nc(C)cc(C)n3)cc2)c2ccccc2n1 |
| 1100 s | CCN1C(=O)C2(CCN(S(=O)(=O)c3ccc(Cl)c(C)c3)CC2)c2ccccc21 |
| 1160 s | O=S(=O)(c1cccc(-c2nnc(-c3ccc(Cl)cc3)o2)c1)N1CCCCC1 |
| 709 s | COc1ccccc1NC(=O)Cn1nc2n(c1=O)CCCCC2 |
| 1450 s | COc1cccc(C2Cn3nnc(-c4nc(-c5ccc(C(C)(C)C)cc5)no4)c3CO2)c1 (stereo not drawn) |
| 738 s | COc1ccc(/C=C\c2onc(C)c2NC(C)=O)cc1S(=O)(=O)N1CCN(c2ncccn2)CC1 |
| 694 s | COc1ccc(NC(=O)c2cn3c(n2)CSCC3)cc1F |
| 775 s | Cc1ccc(C(=O)OCCN2C(=O)c3ccccc3C2=O)cc1 |
| 754 s | O=C(Cc1csc(NC(=O)NC2CCCC2)n1)NCCc1c[nH]c2ccccc12 |
| 649 s | CC(=O)Nc1nsc(N2CCC(C(=O)NCc3ccc(F)cc3)CC2)n1 |
| 1290 s | CCCS(=O)(=O)N1CCC2(CC1)CN(c1cccc(F)c1)C2c1ccccc1 (stereo not drawn) |
| 926 s | Cn1c(=O)sc2cc(S(=O)(=O)N3CCC(C(=O)Nc4ccc(Cl)cc4)CC3)ccc21 |
| 821 s | COc1ccc(N2CCN(c3nc(C(=O)NCC4CCCO4)cs3)CC2)cc1 (stereo not drawn) |
| 795 s | COc1ccc(CNC(=O)c2ccc3c(c2)NC(=O)C2CCCCN32)c(OC)c1 (stereo not drawn) |
| 970 s | CCOc1cc(=O)n2c(c1C(=O)OCc1ccc(Cl)cc1)CCCC2 |
| 940 s | O=C(Nc1ccccc1F)N1CCC(N2C(=O)C3(CCCCC3)C2c2ccccc2)CC1 (stereo not drawn) |
| 741 s | CC(=O)NC(CCS(C)(=O)=O)C(=O)Nc1ccc(-c2nc3ccc(C)cc3s2)cc1 (stereo not drawn) |
| 705 s | C[C@@H](NC(=O)c1cc(C(=O)N[C@@H](Cc2ccccc2)[C@H](O)CNC2CC2)cc(N(C)S(C)(=O)=O)c1)c1ccccc1 |
| 1010 s | Cc1ccccc1C(=O)Nc1nc(-c2ccc3c(c2)N(C)C(=O)C(C)O3)cs1 (stereo not drawn) |
| 661 s | COc1ccc(F)cc1S(=O)(=O)N1C[C@@H]2C[C@H](NC(=O)c3ccccc3)[C@H]1C2 |
| 668 s | CC1CCC(C(=O)NC(Cc2c[nH]c3ccccc23)C(=O)Nc2ccncc2)CC1 (stereo not drawn) |
| 814 s | CC1=C(c2ccccc2)S(=O)(=O)N=C1N1CCCN(C(=O)C2CCCC2)CC1 |
| 1100 s | CCc1cc(=O)n(CC(=O)Nc2ccc3c(c2)OCO3)c(-c2cccc(F)c2)n1 |
| 532 s | COCc1nc2ccccc2n1CC(=O)NCC1CCCO1 (stereo not drawn) |
